Measured values as given in patent publication US7342011B2, “Rifamycin analogs and uses thereof” (priority 2003, dated 2008).
Converted amounts (≈) assume the structure as drawn.

Legend:
Type in all cases: cell-based
[1] = test system: E. faecalis; assay: MIC assay, E. faecalis
[2] = test system: S. pneumo.; assay: MIC assay, S. pneumo.
[3] = test system: S. aureus; assay: MIC assay, S. aureus
[4] = test system: H. flu; assay: MIC assay, H. flu
[5] = test system: E. coli; assay: MIC assay, E. coli

SMILES | MIC (μg/mL) E. faecalis [1] [µg/mL] | MIC (μg/mL) S. pneumo. [2] [µg/mL] | MIC (μg/mL) S. aureus [3] [µg/mL] | MIC (μg/mL) H. flu [4] [µg/mL] | MIC (μg/mL) E. coli [5] [µg/mL]
CCOC(=O)NC1CCN(c2cc(O)c3nc4c5c6c7c(C)c(O)c5c(=O)c(c-4oc3c2)NC(=O)C(C)=CC=CC(C)C(O)C(C)C(O)C(C)C(O)C(C)C(OC)C=COC(C)(O7)C6=O)CC1 (stereo not drawn) [Compound 3, 25-O-deacetyl-3′-hydroxy-5′-(4-ethylcarbamyl-1-piperidinyl)benzoxazinorifamycin] | 0.12 (≈ 129 nM) | 0.0005 (≈ 0.538 nM) | 0.03 (≈ 32.3 nM) | 0.25 (≈ 269 nM) | 4 (≈ 4310 nM)
CO[C@H]1/C=C/O[C@@]2(C)Oc3c(C)c(O)c4c(=O)c(c5oc6cc(N7CCC(C)(NC(C)=O)CC7)cc(O)c6nc-5c4c3C2=O)NC(=O)/C(C)=C\C=C\[C@H](C)[C@H](O)[C@@H](C)[C@@H](O)[C@@H](C)[C@H](OC(C)=O)[C@@H]1C [Compound 72, 3′-hydroxy-5′-[4-methyl-4-acetylamino-1-piperidinyl]benzoxazinorifamycin] | 2 (≈ 2090 nM) | 0.00025 (≈ 0.262 nM) | 0.008 (≈ 8.38 nM) | 0.5 (≈ 524 nM) | >8
CO[C@H]1/C=C/O[C@@]2(C)Oc3c(C)c(O)c4c(=O)c(c5oc6cc(N7C[C@H]8CCCN(C(C)=O)[C@H]8C7)cc(O)c6nc-5c4c3C2=O)NC(=O)/C(C)=C\C=C\[C@H](C)[C@H](O)[C@@H](C)[C@@H](O)[C@@H](C)[C@H](OC(C)=O)[C@@H]1C [Compound 47, 3′-hydroxy-5′-[-acetyl-(4aR,7aR)-octahydro-6H-pyrrolo[3,4-b]pyridin-6-yl]benzoxazinorifamycin] | 1 (≈ 1030 nM) | 0.002 (≈ 2.07 nM) | 0.008 (≈ 8.27 nM) | 0.25 (≈ 259 nM) | >8
COCCOC(=O)NC1CCN(c2cc(O)c3nc4c5c6c7c(C)c(O)c5c(=O)c(c-4oc3c2)NC(=O)/C(C)=C\C=C\[C@H](C)[C@H](O)[C@@H](C)[C@@H](O)[C@@H](C)[C@H](OC(C)=O)[C@H](C)[C@@H](OC)/C=C/O[C@@](C)(O7)C6=O)CC1 [Compound 41, 3′-hydroxy-5′-[4-methoxyethylcarbamyl-1-piperidinyl]benzoxazinorifamycin] | >8 | 0.0005 (≈ 0.499 nM) | 0.25 (≈ 250 nM) | 2 (≈ 2000 nM) | >8
CCOC(=O)N1CCC[C@@H]2CN(c3cc(O)c4nc5c6c7c8c(C)c(O)c6c(=O)c(c-5oc4c3)NC(=O)/C(C)=C\C=C\[C@H](C)[C@H](O)[C@@H](C)[C@@H](O)[C@@H](C)[C@H](OC(C)=O)[C@H](C)[C@@H](OC)/C=C/O[C@@](C)(O8)C7=O)C[C@@H]21 [Compound 40, 3′-hydroxy-5′-[1-ethylcarbamyl-(4aR,7aR)-octahydro-6H-pyrrolo[3,4-b]pyridin-6-yl]benzoxazinorifamycin] | 1 (≈ 1000 nM) | 0.008 (≈ 8.02 nM) | 0.06 (≈ 60.2 nM) | 0.5 (≈ 501 nM) | >8
CO[C@H]1/C=C/O[C@@]2(C)Oc3c(C)c(O)c4c(=O)c(c5oc6cc(N7CCC(NC(=O)OC(C)(C)C)CC7)cc(O)c6nc-5c4c3C2=O)NC(=O)/C(C)=C\C=C\[C@H](C)[C@H](O)[C@@H](C)[C@@H](O)[C@@H](C)[C@H](OC(C)=O)[C@@H]1C [Compound 48, 3′-hydroxy-5,′-[4-(2,2-dimethylethyl)carbamyl-1-piperidinyl]benzoxazinorifamycin] | 2 (≈ 2000 nM) | 0.00025 (≈ 0.25 nM) | 0.008 (≈ 8.01 nM) | 1 (≈ 1000 nM) | >8
CO[C@H]1/C=C/O[C@@]2(C)Oc3c(C)c(O)c4c(=O)c(c5oc6cc(N7CCC(NC(=O)N8CCN(C)CC8)CC7)cc(O)c6nc-5c4c3C2=O)NC(=O)/C(C)=C\C=C\[C@H](C)[C@H](O)[C@@H](C)[C@@H](O)[C@@H](C)[C@H](OC(C)=O)[C@@H]1C [Compound 50, 3′-hydroxy-5′-[4-(4-methylpiperazinylcarbonyl)amino-1-piperidinyl]benzoxazinorifamycin] | 4 (≈ 3900 nM) | 0.00012 (≈ 0.117 nM) | 0.03 (≈ 29.3 nM) | 0.5 (≈ 488 nM) | >8
CO[C@H]1/C=C/O[C@@]2(C)Oc3c(C)c(O)c4c(=O)c(c5oc6cc(N7CCC(CNC(C)=O)CC7)cc(O)c6nc-5c4c3C2=O)NC(=O)/C(C)=C\C=C\[C@H](C)[C@H](O)[C@@H](C)[C@@H](O)[C@@H](C)[C@H](OC(C)=O)[C@@H]1C [Compound 55, 3′-hydroxy-5′-[4-acetylaminomethyl-1-piperidinyl]benzoxazinorifamycin] | 1 (≈ 1050 nM) | 0.00025 (≈ 0.262 nM) | 0.008 (≈ 8.38 nM) | 0.5 (≈ 524 nM) | 8 (≈ 8380 nM)
CO[C@H]1/C=C/O[C@@]2(C)Oc3c(C)c(O)c4c(=O)c(c5oc6cc(N7C[C@H]8CCCN(C(C)=O)[C@H]8C7)cc(O)c6nc-5c4c3C2=O)NC(=O)/C(C)=C\C=C\[C@H](C)[C@H](O)[C@@H](C)[C@@H](O)[C@@H](C)[C@H](O)[C@@H]1C [Compound 46, 25-O-deacetyl-3′-hydroxy-5′-[1-acetyl-(4aR,7aR)-octahydro-6H-pyrrolo[3,4-b]pyridin-6-yl]benzoxazinorifamycin] | 2 (≈ 2160 nM) | 0.00006 (≈ 0.0649 nM) | 0.004 (≈ 4.32 nM) | 0.5 (≈ 541 nM) | >8
CO[C@H]1/C=C/O[C@@]2(C)Oc3c(C)c(O)c4c(=O)c(c5oc6cc(N7CCC(N)CC7)cc(O)c6nc-5c4c3C2=O)NC(=O)/C(C)=C\C=C\[C@H](C)[C@H](O)[C@@H](C)[C@@H](O)[C@@H](C)[C@H](O)[C@@H]1C [Compound 39, 25-O-deacetyl-3′-hydroxy-5′-[4-amino-1-piperidinyl]benzoxazinorifamycin] | 2 (≈ 2330 nM) | 0.001 (≈ 1.17 nM) | 0.03 (≈ 35 nM) | 0.25 (≈ 292 nM) | >8
CO[C@H]1/C=C/O[C@@]2(C)Oc3c(C)c(O)c4c(=O)c(c5oc6cc(N7CCC(c8ccccc8)CC7)cc(O)c6nc-5c4c3C2=O)NC(=O)/C(C)=C\C=C\[C@H](C)[C@H](O)[C@@H](C)[C@@H](O)[C@@H](C)[C@H](OC(C)=O)[C@@H]1C [Compound 57, 3′-hydroxy-5′-[4-phenyl-1-piperidinyl]benzoxazinorifamycin] | 2 (≈ 2080 nM) | 0.0005 (≈ 0.521 nM) | 0.008 (≈ 8.33 nM) | 0.5 (≈ 521 nM) | 8 (≈ 8330 nM)
CCOC(=O)N1CCCC2CN(c3cc(O)c4nc5c6c7c8c(C)c(O)c6c(=O)c(c-5oc4c3)NC(=O)C(C)=CC=CC(C)C(O)C(C)C(O)C(C)C(O)C(C)C(OC)C=COC(C)(O8)C7=O)CC21 (stereo not drawn) [Compound 42] | 2 (≈ 2090 nM) | 0.00012 (≈ 0.126 nM) | 0.008 (≈ 8.38 nM) | 0.5 (≈ 524 nM) | 8 (≈ 8380 nM)
